# Results taken from PubChem BioAssay AID1963975 (Molecular Pharmacology Branch, DTP, NCI, 2024).
# Tested on: 624824-186-R-J2-PDC multicell spheroids, viability
# Assay: Anticancer human tumor 624824-186-R-J2-PDC patient-derived colon adenocarcinoma cell line growth inhibition [PI3K]
# Conditions: for IC50: curve of first compound; for viability, T/C: stronger effect = lower value
# Procedure, shortened: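 Tumor cells grown as multi-cell spheroids with HUVEC endothelial cells and MSC fibroblast-like stroma were treated with targeted agents combined with inavolisib, alpelisib, duvelisib or copanlisib. Doses fell in half-log steps from near clinical Cmax, else from 10 microM. Viability was measured.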
# [1] = second compound 0.00316 µM, first compound 0.0316 µM
# [2] = second compound 0.00316 µM, first compound 0.1 µM
# [3] = second compound 0.00316 µM, first compound 0.316 µM
# [4] = second compound 0.00316 µM, first compound 1 µM
# [5] = second compound 0.00316 µM, first compound 3.16 µM
# [6] = second compound 0.00316 µM, first compound 10 µM
# [7] = second compound 0.01 µM, first compound 0.0316 µM
# [8] = second compound 0.01 µM, first compound 0.1 µM
# [9] = second compound 0.01 µM, first compound 0.316 µM
# [10] = second compound 0.01 µM, first compound 1 µM
# [11] = second compound 0.01 µM, first compound 3.16 µM
# [12] = second compound 0.01 µM, first compound 10 µM
# [13] = second compound 0.0316 µM, first compound 0.0316 µM
# [14] = second compound 0.0316 µM, first compound 0.1 µM
# [15] = second compound 0.0316 µM, first compound 0.316 µM
# [16] = second compound 0.0316 µM, first compound 1 µM
# [17] = second compound 0.0316 µM, first compound 3.16 µM
# [18] = second compound 0.0316 µM, first compound 10 µM
# [19] = second compound 0.1 µM, first compound 0.0316 µM
# [20] = second compound 0.1 µM, first compound 0.1 µM
# [21] = second compound 0.1 µM, first compound 0.316 µM
# [22] = second compound 0.1 µM, first compound 1 µM
# [23] = second compound 0.1 µM, first compound 3.16 µM
# [24] = second compound 0.1 µM, first compound 10 µM
# [25] = second compound 0.316 µM, first compound 0.0316 µM
# [26] = second compound 0.316 µM, first compound 0.1 µM
# [27] = second compound 0.316 µM, first compound 0.316 µM
# [28] = second compound 0.316 µM, first compound 1 µM
# [29] = second compound 0.316 µM, first compound 3.16 µM
# [30] = second compound 0.316 µM, first compound 10 µM
# [31] = second compound 1 µM, first compound 0.0316 µM
# [32] = second compound 1 µM, first compound 0.1 µM
# [33] = second compound 1 µM, first compound 0.316 µM
# [34] = second compound 1 µM, first compound 1 µM
# [35] = second compound 1 µM, first compound 3.16 µM
# [36] = second compound 1 µM, first compound 10 µM
# 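Also: spheroids exposed to agents for 7 days before viability read.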
# 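For viability, T/C in this document: 100% = DMSO vehicle treated spheroids.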
smiles,measurement,setting,value
C#Cc1c(F)ccc2cc(O)cc(-c3ncc4c(N5CC6CCC(C5)N6)nc(OCC56CCCN5CC(F)C6)nc4c3F)c12 (stereo not drawn) + COc1c(OCCCN2CCOCC2)ccc2c3n(c(=NC(=O)c4cnc(N)nc4)nc12)CCN3,IC50,second compound 0.00316 µM,> 10 µM
same,IC50,second compound 0.01 µM,> 10 µM
same,IC50,second compound 0.0316 µM,> 10 µM
same,IC50,second compound 0.1 µM,> 10 µM
same,IC50,second compound 0.316 µM,> 10 µM
same,IC50,second compound 1 µM,6.78 µM
same,"viability, T/C",[1],89.2%
same,"viability, T/C",[2],101%
same,"viability, T/C",[3],73.6%
same,"viability, T/C",[4],91.6%
same,"viability, T/C",[5],87.9%
same,"viability, T/C",[6],80.8%
same,"viability, T/C",[7],92.8%
same,"viability, T/C",[8],90.2%
same,"viability, T/C",[9],89.8%
same,"viability, T/C",[10],78.5%
same,"viability, T/C",[11],89.9%
same,"viability, T/C",[12],95.4%
same,"viability, T/C",[13],94.3%
same,"viability, T/C",[14],77.2%
same,"viability, T/C",[15],92.6%
same,"viability, T/C",[16],77.5%
same,"viability, T/C",[17],80.6%
same,"viability, T/C",[18],81.5%
same,"viability, T/C",[19],78.8%
same,"viability, T/C",[20],76.9%
same,"viability, T/C",[21],66.2%
same,"viability, T/C",[22],68.3%
same,"viability, T/C",[23],72.8%
same,"viability, T/C",[24],72.2%
same,"viability, T/C",[25],72.6%
same,"viability, T/C",[26],59.4%
same,"viability, T/C",[27],65%
same,"viability, T/C",[28],60.4%
same,"viability, T/C",[29],58.5%
same,"viability, T/C",[30],56.4%
same,"viability, T/C",[31],60.1%
same,"viability, T/C",[32],59.9%
same,"viability, T/C",[33],52.9%
same,"viability, T/C",[34],56%
same,"viability, T/C",[35],50.8%
same,"viability, T/C",[36],49.3%
C=CC(=O)N1CCN(c2nc(=O)n(-c3c(C)ccnc3C(C)C)c3nc(-c4c(O)cccc4F)c(F)cc23)C(C)C1 (stereo not drawn) + COc1c(OCCCN2CCOCC2)ccc2c3n(c(=NC(=O)c4cnc(N)nc4)nc12)CCN3,IC50,second compound 0.00316 µM,> 10 µM
same,IC50,second compound 0.01 µM,> 10 µM
same,IC50,second compound 0.0316 µM,> 10 µM
same,IC50,second compound 0.1 µM,> 10 µM
same,IC50,second compound 0.316 µM,> 10 µM
same,IC50,second compound 1 µM,> 10 µM
same,"viability, T/C",[1],96.5%
same,"viability, T/C",[2],109%
same,"viability, T/C",[3],95.6%
same,"viability, T/C",[4],77.9%
same,"viability, T/C",[5],88.7%
same,"viability, T/C",[6],80.8%
same,"viability, T/C",[7],102%
same,"viability, T/C",[8],98.4%
same,"viability, T/C",[9],101%
same,"viability, T/C",[10],75.3%
same,"viability, T/C",[11],93%
same,"viability, T/C",[12],88.4%
same,"viability, T/C",[13],88.4%
same,"viability, T/C",[14],86.5%
same,"viability, T/C",[15],97.3%
same,"viability, T/C",[16],75.1%
same,"viability, T/C",[17],89.5%
same,"viability, T/C",[18],81.7%
same,"viability, T/C",[19],80.4%
same,"viability, T/C",[20],61.1%
same,"viability, T/C",[21],80.1%
same,"viability, T/C",[22],67.9%
same,"viability, T/C",[23],69%
same,"viability, T/C",[24],69%
same,"viability, T/C",[25],62.6%
same,"viability, T/C",[26],59.3%
same,"viability, T/C",[27],59.5%
same,"viability, T/C",[28],61.6%
same,"viability, T/C",[29],69.8%
same,"viability, T/C",[30],61%
same,"viability, T/C",[31],59.1%
same,"viability, T/C",[32],53%
same,"viability, T/C",[33],65.5%
same,"viability, T/C",[34],58.1%
same,"viability, T/C",[35],64.5%
same,"viability, T/C",[36],60.5%
CC(Cn1ccc(-c2ccc(C#N)c(Cl)c2)n1)NC(=O)c1cc(C(C)O)[nH]n1 (stereo not drawn) + COc1c(OCCCN2CCOCC2)ccc2c3n(c(=NC(=O)c4cnc(N)nc4)nc12)CCN3,IC50,second compound 0.00316 µM,> 10 µM
same,IC50,second compound 0.01 µM,> 10 µM
same,IC50,second compound 0.0316 µM,> 10 µM
same,IC50,second compound 0.1 µM,> 10 µM
same,IC50,second compound 0.316 µM,> 10 µM
same,IC50,second compound 1 µM,> 10 µM
same,"viability, T/C",[1],86.3%
same,"viability, T/C",[2],79%
same,"viability, T/C",[3],106%
same,"viability, T/C",[4],98.5%
same,"viability, T/C",[5],71.5%
same,"viability, T/C",[6],117%
same,"viability, T/C",[7],87.1%
same,"viability, T/C",[8],89.7%
same,"viability, T/C",[9],98%
same,"viability, T/C",[10],84.8%
same,"viability, T/C",[11],99.6%
same,"viability, T/C",[12],114%
same,"viability, T/C",[13],102%
same,"viability, T/C",[14],88.1%
same,"viability, T/C",[15],90.7%
same,"viability, T/C",[16],84.5%
same,"viability, T/C",[17],92%
same,"viability, T/C",[18],97.2%
same,"viability, T/C",[19],76.9%
same,"viability, T/C",[20],73.2%
same,"viability, T/C",[21],71.6%
same,"viability, T/C",[22],76.6%
same,"viability, T/C",[23],85.1%
same,"viability, T/C",[24],80%
same,"viability, T/C",[25],61.4%
same,"viability, T/C",[26],70.2%
same,"viability, T/C",[27],55.3%
same,"viability, T/C",[28],62.2%
same,"viability, T/C",[29],68.1%
same,"viability, T/C",[30],63.8%
same,"viability, T/C",[31],63%
same,"viability, T/C",[32],58.6%
same,"viability, T/C",[33],62.7%
same,"viability, T/C",[34],63.6%
same,"viability, T/C",[35],63.4%
same,"viability, T/C",[36],59%
CC1(C)CCC(Nc2ncc(C(F)(F)F)c(-c3c[nH]c4c(P(C)(C)=O)c(C#N)ccc34)n2)CN1 (stereo not drawn) + COc1c(OCCCN2CCOCC2)ccc2c3n(c(=NC(=O)c4cnc(N)nc4)nc12)CCN3,IC50,second compound 0.00316 µM,3.5 µM
same,IC50,second compound 0.01 µM,3.48 µM
same,IC50,second compound 0.0316 µM,2.23 µM
same,IC50,second compound 0.1 µM,1.45 µM
same,IC50,second compound 0.316 µM,0.28 µM
same,IC50,second compound 1 µM,< 0.0316 µM
same,"viability, T/C",[1],78.3%
same,"viability, T/C",[2],104%
same,"viability, T/C",[3],92.2%
same,"viability, T/C",[4],89.3%
same,"viability, T/C",[5],54.4%
same,"viability, T/C",[6],4.77%
same,"viability, T/C",[7],73.5%
same,"viability, T/C",[8],76.8%
same,"viability, T/C",[9],94.8%
same,"viability, T/C",[10],83.1%
same,"viability, T/C",[11],54.2%
same,"viability, T/C",[12],4.78%
same,"viability, T/C",[13],82.5%
same,"viability, T/C",[14],75.9%
same,"viability, T/C",[15],71.5%
same,"viability, T/C",[16],61.7%
same,"viability, T/C",[17],46.9%
same,"viability, T/C",[18],3.67%
same,"viability, T/C",[19],63.6%
same,"viability, T/C",[20],56.9%
same,"viability, T/C",[21],55.1%
same,"viability, T/C",[22],49.1%
same,"viability, T/C",[23],45.6%
same,"viability, T/C",[24],4.59%
same,"viability, T/C",[25],54%
same,"viability, T/C",[26],51.7%
same,"viability, T/C",[27],47.9%
same,"viability, T/C",[28],43.8%
same,"viability, T/C",[29],35.4%
same,"viability, T/C",[30],2.98%
same,"viability, T/C",[31],43%
same,"viability, T/C",[32],44.8%
same,"viability, T/C",[33],42.7%
same,"viability, T/C",[34],37.2%
same,"viability, T/C",[35],32.5%
same,"viability, T/C",[36],2.59%
